Test results reported in patent US11584763B2, “Chromenopyridine derivatives as phosphatidylinositol phosphate kinase inhibitors” (HIBERCELL, INC., priority 2017, dated 2023).

Key:
PIP4K2B = molecular target: T1, PIP4K2B (Homo sapiens, UniProt P78356); experiment: Trans-FI P kinase assay PIP4K2B (PIP4KtypeIIB inhibition assay); assay type: biochemical; details: compounds listed under IC50 bin headings; 100 uM GTP; read-out: Trans-FI P kinase assays: PIP4K2B IC50
T1 construct: made in house; host or cells: E. coli
T1 sequence (P78356 1-416): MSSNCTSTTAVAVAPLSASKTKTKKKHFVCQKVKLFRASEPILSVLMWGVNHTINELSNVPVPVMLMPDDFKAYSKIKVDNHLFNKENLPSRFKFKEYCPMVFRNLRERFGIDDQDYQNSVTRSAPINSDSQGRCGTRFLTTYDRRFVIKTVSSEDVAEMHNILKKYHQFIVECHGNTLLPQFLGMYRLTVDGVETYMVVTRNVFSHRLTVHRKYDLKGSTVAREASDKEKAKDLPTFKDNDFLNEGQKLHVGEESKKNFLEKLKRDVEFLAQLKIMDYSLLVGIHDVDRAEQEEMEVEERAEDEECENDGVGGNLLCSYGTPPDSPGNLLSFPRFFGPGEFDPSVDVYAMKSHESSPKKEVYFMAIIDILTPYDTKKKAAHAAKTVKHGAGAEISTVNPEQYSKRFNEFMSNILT
Description: GST tagged PIP4KtypeIIA and B enzymes were overexpressed in E. Coli and purified to >80% homogeneity. Phosphatidyl inositol-5-phosphate (PI5P, Cat. #850152, Avanti Polar Lipids Inc.) was used as the lipid substrate and phosphatidyl ethanolamine (DOPE 18:1, Cat. #850725, Avanti Polar Lipids Inc.) was used as the carrier lipid for assays. Ultrapure ATP and GTP was purchased from Bellbrooke Labs. ADP Glo reagents were obtained from Promega. Transcreener FI reagent was obtained from Bellbrooke labs.
GST-tagged PIP4KtypeIIB (3.4 uL, 2.77 mg/mL) was diluted to 5 mL using HNE buffer to yield 5× enzyme stock (25 nM)
Lipid Preparation: In a 10 mL pyrex glass vial, 1 ug of PI5P and 1 ug of DOPE were suspended in 2.5 mL of HEPES buffer mix and 2.5 mL of H:E buffer. The contents were mixed and sonicated for 3 min to yield a translucent lipid stock.
Compound Preparation: Compounds were stored as 5 mM stocks in neat DMSO as room temperature in glass vials. 5 mM stocks were diluted to 2 mM and then serially diluted (3×) in neat DMSO in 96 well polypropylene plates. From the serially diluted stocks, 3 uL was delivered into 250 uL of 25% DMSO (in water) to generate 5× compound stocks. Typically, the highest compound conc. was 24 uM.
The assay volume was kept at 25 uL. To each well of the reaction plate, 10 uL of lipid stock (1:1 ratio PI5P:DOPE) was delivered. This was followed by the addition of 5 uL of compound in 25% DMSO. Then, to each well, 5 uL of 25 nM (5×) typeIIB enzyme was delivered. The contents were mixed well and incubated for 1 h at 27 C. After 1 h, reaction was initiated by adding 5 uL of 500 uM GTP and the contents were mixed well with a multi-channel pipetteman. The final concentration of the reagents are as follows: 50 mM HEPES, pH 7.3, 10 mM MgCl2, 20 mM NaCl, 0.01% v/v triton-X100, 5% DMSO, 100 uM GTP, 80 uM (2 ug) PI5P, 2 ug DOPE, and 5 nM PIP4KIIB Typically, the highest conc. of compounds was 4.8 uM and the lowest conc. was 0.
After 2 h, the reaction was quenched by adding 25 uL of transcreener FI reagent. The contents were incubated at RT for 1 h and the Fluorescence (Ex: 584 Em: 623) was read using Molecular Devices Paradigm plate reader. […] The blanks were averaged and subtracted from all other wells. Using a calibration curve, RFU was converted to uM GDP (product). IC50 was calculated by plotting the residual activity (expressed as % No inhibitor control) vs. log [Inh. conc.]

PIP4K 2A = molecular target: T2, PIP4K 2A (Homo sapiens, UniProt P48426); experiment: ADP-glo kinase assay PIP4K 2A; assay type: biochemical; set-up: 4 nM PIP4K2A (full length protein, SignalChem); purchased SignalChem; details: compounds listed under IC50 bin headings
T2 sequence (P48426 1-406): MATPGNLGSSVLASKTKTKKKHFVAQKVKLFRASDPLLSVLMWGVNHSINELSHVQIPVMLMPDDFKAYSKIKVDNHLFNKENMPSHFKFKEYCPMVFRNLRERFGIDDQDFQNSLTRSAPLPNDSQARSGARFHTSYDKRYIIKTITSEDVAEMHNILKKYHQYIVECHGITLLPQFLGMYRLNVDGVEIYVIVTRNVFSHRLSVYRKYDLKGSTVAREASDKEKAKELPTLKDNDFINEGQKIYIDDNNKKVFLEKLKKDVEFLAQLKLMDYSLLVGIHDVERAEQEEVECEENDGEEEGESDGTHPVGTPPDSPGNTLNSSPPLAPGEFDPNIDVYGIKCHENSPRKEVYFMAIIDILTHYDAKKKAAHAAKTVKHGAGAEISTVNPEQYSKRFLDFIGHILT
Method: Dilution series of the compounds were prepared in DMSO at 100 times the final assay concentration (n1=n0/3 in 10 points). The compounds were further diluted to three times the assay concentration in assay buffer (20 mM MOPS pH 7.2, 25 mM magnesium chloride, 0.005% Tween 20). 6 μL of the diluted compounds were added to a 384 well assay plate followed by 9 μL of a mix consisting of 4 nM PIP4K2A (full length protein, SignalChem) and 100 μM PI(5)P diC8 (Tebu-Bio). Enzyme and compounds were pre-incubated at room temperature for 15 minutes.
Then 3 μL of a solution containing 60 μM ATP (Promega) in assay buffer was added to the wells containing compound and enzyme and mixing was performed by pipetting several times. The reaction was incubated at room temperature for 1 h. Then 18 μL of ADP-Glo™ Reagent (Promega) was added to stop the kinase reaction and deplete the unconsumed ATP, mixing was performed by pipetting several times. The plate was incubated at room temperature for 40 minutes before addition of 36 μL of Kinase Detection Reagent (Promega) to convert ADP to ATP and introduce luciferase and luciferin to detect ATP. The reaction was incubated at room temperature for 40 minutes before the luminescence was measured in a in a Victor 3V 1420 multilabel counter (Perkin Elmer).
Percent inhibition of the compounds as compared to dimethyl sulfoxide treated control samples was calculated. Compound concentration versus percent inhibition were fitted to generate IC50 values.

Row | Structure (SMILES) | IC50 (PIP4K2B) | IC50 (PIP4K 2A)
1 | COCCC(=O)N1CCN(c2cncc(Nc3cc4c(cn3)-c3ccc(N5CCCC5=O)cc3OC4)c2)CC1 [Example 168, 1-(3-((5-(4-(3-methoxypropanoyl)piperazin-1-yl)pyridin-3-yl)amino)-5H-chromeno[4,3-c]pyridin-8-yl)pyrrolidin-2-one] | 0.01 to 0.1 µM | 0.01 to 0.1 µM
2 | CC1Oc2cc(N3CCCC3=O)ccc2-c2cnc(Nc3cnc4c(c3)N3C(=O)C5(CC5)C[C@H]3CO4)cc21 (some centres unmarked) [Example 157, (6a′S)-2′-((5-methyl-8-(2-oxopyrrolidin-1-yl)-5H-chromeno[4,3-c]pyridin-3-yl)amino)-6a′,7′-dihydro-6′H,9′H-spiro[cyclopropane-1,8′-pyrido[2,3-b]pyrrolo[1,2-d][1,4]oxazin]-9′-one] | 0.001 to 0.01 µM | ≤ 0.001 µM
3 | CC1Oc2cc(N3CCCC3=O)ccc2-c2cnc(Nc3cncc(NC(=O)c4ccn5ccnc5c4)c3)cc21 (centres unmarked) [Example 147, N-(5-((5-methyl-8-(2-oxopyrrolidin-1-yl)-5H-chromeno[4,3-c]pyridin-3-yl)amino)pyridin-3-yl)imidazo[1,2-a]pyridine-7-carboxamide] | 0.01 to 0.1 µM | 0.001 to 0.01 µM
4 | CC1Oc2cc(N3CCCC3=O)ccc2-c2cnc(Nc3cncc(NC(=O)C4CCNC4=O)c3)cc21 (centres unmarked) [Example 104, N-(5-((5-methyl-8-(2-oxopyrrolidin-1-yl)-5H-chromeno[4,3-c]pyridin-3-yl)amino)pyridin-3-yl)-2-oxopyrrolidine-3-carboxamide] | 0.01 to 0.1 µM | 0.001 to 0.01 µM
5 | CC1Oc2cc(N3CCCC3=O)ccc2-c2cnc(Nc3cncc(NC(=O)c4ccnnc4)c3)cc21 (centres unmarked) [Example 125, N-(5-((5-methyl-8-(2-oxopyrrolidin-1-yl)-5H-chromeno[4,3-c]pyridin-3-yl)amino)pyridin-3-yl)pyridazine-4-carboxamide] | 0.01 to 0.1 µM | 0.001 to 0.01 µM
6 | CC1Oc2cc(N3CCCC3=O)c(F)cc2-c2cnc(Nc3cnc4c(c3)N3C(=O)OC[C@H]3CO4)cc21 (stereo partly drawn) [Example 159, (3aR)-8-((9-fluoro-5-methyl-8-(2-oxopyrrolidin-1-yl)-5H-chromeno[4,3-c]pyridin-3-yl)amino)-3a,4-dihydro-1H,3H-oxazolo[3,4-d]pyrido[2,3-b][1,4]oxazin-1-one] | 0.001 to 0.01 µM | ≤ 0.001 µM
7 | CC1Oc2cc(N3CCCC3=O)ccc2-c2cnc(Nc3cnc4cccc(S(C)(=O)=O)c4c3)cc21 (centres unmarked) [Example 92, 1-(5-methyl-3-((5-(methylsulfonyl)quinolin-3-yl)amino)-5H-chromeno[4,3-c]pyridin-8-yl)pyrrolidin-2-one] | > 1 µM | 0.001 to 0.01 µM
8 | COC(=O)Nc1cncc(Nc2cc3c(cn2)-c2ccc(N4CCCC4=O)cc2OC3C)c1 (centres unmarked) [Example 98, methyl (5-((5-methyl-8-(2-oxopyrrolidin-1-yl)-5H-chromeno[4,3-c]pyridin-3-yl)amino)pyridin-3-yl)carbamate] | 0.01 to 0.1 µM | 0.001 to 0.01 µM
9 | COCCC(=O)N1CCN(c2cncc(Nc3cc4c(cn3)-c3cc(F)c(N5CCCC5=O)cc3OC4)c2)CC1 [Example 171, 1-(9-fluoro-3-((5-(4-(3-methoxypropanoyl)piperazin-1-yl)pyridin-3-yl)amino)-5H-chromeno[4,3-c]pyridin-8-yl)pyrrolidin-2-one] | 0.01 to 0.1 µM | 0.01 to 0.1 µM
10 | CC1Oc2cc(N3CCCC3=O)ccc2-c2cnc(Nc3cncc(NC(=O)c4cnn5ccccc45)c3)cc21 (centres unmarked) [Example 144, N-(5-((5-methyl-8-(2-oxopyrrolidin-1-yl)-5H-chromeno[4,3-c]pyridin-3-yl)amino)pyridin-3-yl)pyrazolo[1,5-a]pyridine-3-carboxamide] | 0.001 to 0.01 µM | ≤ 0.001 µM
11 | CC1Oc2cc(N3CCCC3=O)ccc2-c2cnc(Nc3cncc(NC(=O)c4ccc(NC=O)c(O)c4)c3)cc21 (centres unmarked) [Example 109A, 4-formamido-3-hydroxy-N-(5-((5-methyl-8-(2-oxopyrrolidin-1-yl)-5H-chromeno[4,3-c]pyridin-3-yl)amino)pyridin-3-yl)benzamide] | 0.01 to 0.1 µM | 0.001 to 0.01 µM
12 | CN(C)C/C=C/C(=O)Nc1ccc(C(=O)Nc2cncc(Nc3cc4c(cn3)-c3ccc(N5CCCC5=O)cc3OC4)c2)cc1 [Example 200, (E)-4-(4-(dimethylamino)but-2-enamido)-N-(5-((8-(2-oxopyrrolidin-1-yl)-5H-chromeno[4,3-c]pyridin-3-yl)amino)pyridin-3-yl)benzamide] | 0.001 to 0.01 µM | 0.001 to 0.01 µM
13 | CC1Oc2cc(N3CCCC3=O)ccc2-c2cnc(Nc3cncc(NC(=O)c4cccc(F)c4)c3)cc21 (centres unmarked) [Example 120, 3-fluoro-N-(5-((5-methyl-8-(2-oxopyrrolidin-1-yl)-5H-chromeno[4,3-c]pyridin-3-yl)amino)pyridin-3-yl)benzamide] | > 1 µM | 0.001 to 0.01 µM
14 | CC1Oc2cc(N3CCCC3=O)ccc2-c2cnc(Nc3cncc(NC(=O)c4ccc5ncoc5c4)c3)cc21 (centres unmarked) [Example 109, N-(5-((5-methyl-8-(2-oxopyrrolidin-1-yl)-5H-chromeno[4,3-c]pyridin-3-yl)amino)pyridin-3-yl)benzo[d]oxazole-6-carboxamide] | 0.001 to 0.01 µM | 0.001 to 0.01 µM
15 | CC1Oc2cc(N3CCCC3=O)ccc2-c2cnc(Nc3cnc4c(c3)N3C(=O)OC[C@H]3CO4)cc21 (stereo partly drawn) [Example 158, (3aR)-8-((5-methyl-8-(2-oxopyrrolidin-1-yl)-5H-chromeno[4,3-c]pyridin-3-yl)amino)-3a,4-dihydro-1H,3H-oxazolo[3,4-d]pyrido[2,3-b][1,4]oxazin-1-one] | 0.001 to 0.01 µM | ≤ 0.001 µM
16 | CC1Oc2cc(N3CCCC3=O)ccc2-c2cnc(Nc3cncc(NC(=O)c4ccc5c(c4)OCO5)c3)cc21 (centres unmarked) [Example 136, N-(5-((5-methyl-8-(2-oxopyrrolidin-1-yl)-5H-chromeno[4,3-c]pyridin-3-yl)amino)pyridin-3-yl)benzo[d][1,3]dioxole-5-carboxamide] | 0.01 to 0.1 µM | 0.001 to 0.01 µM
